Test results from patent US9243009B2, “Phosphate ester compound of hydroxy acid substituted phenol ester, preparation method and medical use thereof” (West China Hospital, Sichuan University, priority 2010, dated 2016).

Key:
[1] = in words, prior-art prodrug of WO200213810; cited from earlier work
[2] = in words, prior-art prodrug of WO200213810; cited from earlier work; remark: listed apart in the source
Kunming mice = conditions: tail vein injection; for Median effective dose (ED50): disappearance of FRR; for disappearance time of FRR (onset time) / recovery time (recovery of FRR): during the determination of ED50; for anesthetic effect: in words
Method: Median effective doses (ED50) of propofol hydroxybutyrate phosphate disodium salt and Diprivan™ were determined by the up-and-down method. In the test, the mice were injected with the drugs through the tail veins, with the disappearance of the forepaw righting reflex (FRR) of the mice as a judgment index of the end point of anesthesia; the recovery of FRR of the mice as an index of recovery from anesthesia.
In the test, the mice were injected with the drugs through the tail veins, with the disappearance of the forepaw righting reflex (FRR) of the mice as a judgment index of the end point of anesthesia; the recovery of FRR of the mice as an index of recovery from anesthesia.

| Molecule | stability in aqueous solution [1] | water solubility [2] | Median effective dose (ED50) (Kunming mice) [mg/kg] | disappearance time of FRR (onset time) (Kunming mice) [s] | recovery time (recovery of FRR) (Kunming mice) [s] | anesthetic effect (Kunming mice) |
| --- | --- | --- | --- | --- | --- | --- |
| CC(C)c1cccc(C(C)C)c1OC(=O)CCC(=O)[O-].[Na+] [propofol succinic acid monoester sodium salt] | unstable in aqueous solution | high water-solubility |  |  |  |  |
| propofol w-hydroxybutyrate phosphate disodium salt |  |  | 130 | 150.6 ± 42.1 | 480.6 ± 124.3 | definite and reversible anesthetic effect |
| propofol w-hydroxyvalerate phosphate disodium salt |  |  | 152 | 180.8 ± 45.6 | 500.1 ± 114.6 | definite and reversible anesthetic effect |
